Measured values taken from PubChem BioAssay AID216 (DTP/NCI, 2004).
Several values for one entry are separate records, joined by “and”; a condition that tells them apart may be missing. Identical values can stand only once. Toxic doses and inconclusive results are not listed.

System: BDF1 mice, P288 leukemia ip, survival T/C
Experiment: NCI In Vivo Anticancer Drug Screen. Data for tumor model P288 Lymphocytic Leukemia (intraperitoneal) in B6D2F1 (BDF1) mice
Conditions: endpoint: survival time, mean or median, higher = longer survival
Description: The antitumor activity of compounds was measured in mice bearing transplantable tumors. Survival or tumor size were measured and the results are expressed as the measurement made in the treated group (T) divided by the measurement made in the vehicle treated control group (C). The tumor model used in this assay is P288 Lymphocytic Leukemia (intraperitoneal) in B6D2F1 (BDF1) mice

[1] = dose: 10.0 mg/kg/injection, schedule: Q01DX010 (ip), vehicle: saline
[2] = dose: 1.25 mg/kg/injection, schedule: Q01DX010 (ip), vehicle: saline
[3] = dose: 5.0 mg/kg/injection, schedule: Q01DX010 (ip), vehicle: saline

S=c1nc[nH]c2nc[nH]c12
T/C (dose: 5.0 mg/kg/injection, schedule: Q01DX010 (ip), vehicle: alkali diluted with saline): 92 % of control | T/C (dose: 10.0 mg/kg/injection, schedule: Q01DX010 (ip), vehicle: alkali diluted with saline): 94 % of control | T/C (dose: 12.5 mg/kg/injection, schedule: Q01DX Z (ip), vehicle: other): 97 % of control | T/C (dose: 20.0 mg/kg/injection, schedule: Q01DX010 (ip), vehicle: alkali diluted with saline): 86 % of control and 100 % of control | T/C (dose: 25.0 mg/kg/injection, schedule: Q01DX Z (ip), vehicle: other): 93 % of control and 100 % of control | T/C (dose: 40.0 mg/kg/injection, schedule: Q01DX010 (ip), vehicle: alkali diluted with saline): 110 % of control and 86 % of control | T/C (dose: 50.0 mg/kg/injection, schedule: Q01DX Z (ip), vehicle: other): 102 % of control and 94 % of control | T/C (dose: 80.0 mg/kg/injection, schedule: Q01DX010 (ip), vehicle: alkali diluted with saline): 117 % of control and 86 % of control | T/C (dose: 100.0 mg/kg/injection, schedule: Q01DX Z (ip), vehicle: other): 105 % of control and 118 % of control | T/C (dose: 200.0 mg/kg/injection, schedule: Q01DX Z (ip), vehicle: other): 106 % of control and 100 % of control | T/C (dose: 400.0 mg/kg/injection, schedule: Q01DX Z (ip), vehicle: other): 89 % of control

Clc1ccc(C(c2ccccc2Cl)C(Cl)Cl)cc1 (configuration not stated)
T/C (dose: 25.0 mg/kg/injection, schedule: Q01DX Z (sc), vehicle: steriod suspending solution): 100 % of control | T/C (dose: 50.0 mg/kg/injection, schedule: Q01DX Z (sc), vehicle: steriod suspending solution): 122 % of control | T/C (dose: 100.0 mg/kg/injection, schedule: Q01DX Z (sc), vehicle: steriod suspending solution): 107 % of control | T/C (dose: 200.0 mg/kg/injection, schedule: Q01DX Z (sc), vehicle: steriod suspending solution): 86 % of control and 100 % of control | T/C (dose: 400.0 mg/kg/injection, schedule: Q01DX Z (sc), vehicle: steriod suspending solution): 101 % of control

O=c1[nH]c(=O)n(C2CC(O)C(CO)O2)cc1I (configuration not stated)
T/C (dose: 63.0 mg/kg/injection, schedule: Q01DX Z (ip), vehicle: carboxymethylcellulose (CMC)): 104 % of control | T/C (dose: 250.0 mg/kg/injection, schedule: Q01DX Z (ip), vehicle: carboxymethylcellulose (CMC)): 124 % of control | T/C (dose: 1000.0 mg/kg/injection, schedule: Q01DX010 (ip), vehicle: saline): 116 % of control

C[N+](C)(C)c1ncnc2nc[nH]c12
T/C (dose: 0.4 mg/kg/injection, schedule: Q01DX Z (ip), vehicle: carboxymethylcellulose (CMC)): 98 % of control | T/C (dose: 0.8 mg/kg/injection, schedule: Q01DX Z (ip), vehicle: carboxymethylcellulose (CMC)): 94 % of control | T/C (dose: 1.6 mg/kg/injection, schedule: Q01DX Z (ip), vehicle: carboxymethylcellulose (CMC)): 98 % of control | T/C (dose: 3.1 mg/kg/injection, schedule: Q01DX Z (ip), vehicle: carboxymethylcellulose (CMC)): 98 % of control | T/C (dose: 15.0 mg/kg/injection, schedule: Q01DX010 (ip), vehicle: saline): 88 % of control and 100 % of control | T/C (dose: 30.0 mg/kg/injection, schedule: Q01DX010 (ip), vehicle: saline): 100 % of control | T/C (dose: 60.0 mg/kg/injection, schedule: Q01DX010 (ip), vehicle: saline): 100 % of control | T/C (dose: 120.0 mg/kg/injection, schedule: Q01DX010 (ip), vehicle: saline): 100 % of control

COc1cc(-c2ccc(Nc3ccccc3C(=O)O)c(OC)c2)ccc1N
T/C [1]: 94 % of control | T/C (dose: 20.0 mg/kg/injection, schedule: Q01DX010 (ip), vehicle: saline): 114 % of control and 100 % of control | T/C (dose: 40.0 mg/kg/injection, schedule: Q01DX010 (ip), vehicle: saline): 200 % of control | T/C (dose: 80.0 mg/kg/injection, schedule: Q01DX010 (ip), vehicle: saline): 200 % of control and 228 % of control

O=C(Nc1ccc(C2=NCCCN2)cc1)c1ccc(C(=O)Nc2ccc(C3=NCCCN3)cc2)cc1
T/C (dose: 0.2 mg/kg/injection, schedule: Q01DX Z (ip), vehicle: water): 100 % of control | T/C (dose: 0.4 mg/kg/injection, schedule: Q01DX Z (ip), vehicle: water): 109 % of control | T/C (dose: 0.5 mg/kg/injection, schedule: Q01DX010 (ip), vehicle: other): 116 % of control and 120 % of control | T/C (dose: 1.0 mg/kg/injection, schedule: Q01DX010 (ip), vehicle: other): 150 % of control | T/C (dose: 1.6 mg/kg/injection, schedule: Q01DX Z (ip), vehicle: water): 177 % of control | T/C (dose: 2.0 mg/kg/injection, schedule: Q01DX010 (ip), vehicle: other): 192 % of control and 216 % of control | T/C (dose: 3.1 mg/kg/injection, schedule: Q01DX Z (ip), vehicle: water): 273 % of control | T/C (dose: 4.0 mg/kg/injection, schedule: Q01DX010 (ip), vehicle: other): 164 % of control and 212 % of control | T/C (dose: 8.0 mg/kg/injection, schedule: Q01DX010 (ip), vehicle: other): 91 % of control

Oc1cc(CN(CCCl)CCCl)c(O)cc1CN(CCCl)CCCl
T/C (dose: 0.63 mg/kg/injection, schedule: Q01DX010 (ip), vehicle: saline): 100 % of control | T/C [2]: 111 % of control and 100 % of control | T/C (dose: 1.88 mg/kg/injection, schedule: Q01DX Z (sc), vehicle: steriod suspending solution): 87 % of control | T/C (dose: 2.5 mg/kg/injection, schedule: Q01DX010 (ip), vehicle: saline): 105 % of control | T/C (dose: 3.75 mg/kg/injection, schedule: Q01DX Z (sc), vehicle: steriod suspending solution): 104 % of control | T/C [3]: 105 % of control and 116 % of control | T/C [1]: 95 % of control

CC(=O)O[C@]1(C(C)=O)CC[C@H]2[C@@H]3C[C@H](C)C4=CC(=O)C=C[C@]4(C)[C@@]3(F)[C@@H](O)C[C@@]21C
T/C (dose: 2.5 mg/kg/injection, schedule: Q01DX Z (sc), vehicle: steriod suspending solution): 95 % of control | T/C (dose: 5.0 mg/kg/injection, schedule: Q01DX Z (sc), vehicle: steriod suspending solution): 97 % of control | T/C (dose: 10.0 mg/kg/injection, schedule: Q01DX Z (sc), vehicle: steriod suspending solution): 101 % of control | T/C (dose: 12.5 mg/kg/injection, schedule: Q01DX010 (sc), vehicle: steriod suspending solution): 100 % of control | T/C (dose: 20.0 mg/kg/injection, schedule: Q01DX Z (sc), vehicle: steriod suspending solution): 107 % of control | T/C (dose: 25.0 mg/kg/injection, schedule: Q01DX010 (sc), vehicle: steriod suspending solution): 106 % of control | T/C (dose: 40.0 mg/kg/injection, schedule: Q01DX Z (sc), vehicle: steriod suspending solution): 118 % of control | T/C (dose: 50.0 mg/kg/injection, schedule: Q01DX010 (sc), vehicle: steriod suspending solution): 112 % of control | T/C (dose: 80.0 mg/kg/injection, schedule: Q01DX Z (sc), vehicle: steriod suspending solution): 100 % of control | T/C (dose: 100.0 mg/kg/injection, schedule: Q01DX010 (sc), vehicle: steriod suspending solution): 93 % of control | T/C (dose: 160.0 mg/kg/injection, schedule: Q01DX Z (sc), vehicle: steriod suspending solution): 90 % of control

NC(Cc1ccc(N(CCCl)CCCl)cc1)C(=O)O (configuration not stated)
T/C (dose: 0.31 mg/kg/injection, schedule: Q01DX Z (ip), vehicle: carboxymethylcellulose (CMC)): 90 % of control | T/C (dose: 0.63 mg/kg/injection, schedule: Q01DX Z (ip), vehicle: carboxymethylcellulose (CMC)): 111 % of control | T/C [2]: 112 % of control | T/C (dose: 1.25 mg/kg/injection, schedule: Q01DX Z (ip), vehicle: carboxymethylcellulose (CMC)): 110 % of control | T/C (dose: 2.0 mg/kg/injection, schedule: Q01DX010 (ip), vehicle: saline): 172 % of control | T/C (dose: 2.5 mg/kg/injection, schedule: Q01DX Z (ip), vehicle: carboxymethylcellulose (CMC)): 105 % of control | T/C (dose: 4.0 mg/kg/injection, schedule: Q01DX010 (ip), vehicle: saline): 188 % of control | T/C [3]: 150 % of control | T/C (dose: 5.0 mg/kg/injection, schedule: Q01DX Z (ip), vehicle: carboxymethylcellulose (CMC)): 97 % of control | T/C [1]: 187 % of control | T/C (dose: 10.0 mg/kg/injection, schedule: Q01DX Z (ip), vehicle: carboxymethylcellulose (CMC)): 97 % of control | T/C (dose: 16.0 mg/kg/injection, schedule: Q01DX010 (ip), vehicle: saline): 88 % of control

C=C1C[C@H]2[C@@H]3C=C(C)C4=CC(=O)CC[C@]4(C)[C@H]3CC[C@]2(C)[C@@]1(OC(C)=O)C(C)=O
T/C (dose: 62.5 mg/kg/injection, schedule: Q01DX010 (sc), vehicle: steriod suspending solution): 88 % of control | T/C (dose: 125.0 mg/kg/injection, schedule: Q01DX010 (sc), vehicle: steriod suspending solution): 94 % of control
